# Data reported in ChEMBL document CHEMBL3875180, “8-Thioalkyl-adenosine derivatives inhibit Listeria monocytogenes NAD kinase through a novel binding mode” (Eur J Med Chem, 2016).
# Columns and labels:
# [1] = Competitive inhibition of Listeria monocytogenes C-terminal His6-tagged NADK1 expressed in Escherichia coli BL21(DE3) assessed as reduction in NADP production using varying levels of NAD as substrate by glucose-6-phosphate dehydrogenase coupled enzyme based spectrophotometric method
# [2] = Cytotoxicity against human MRC5 cells up to 1 x 10^-4M; assay type: toxicity, cell-based
# NAD kinase [3] = biological target: T1, NAD kinase (Staphylococcus aureus (strain COL), UniProt Q5HH78); assay: Inhibition of Staphylococcus aureus COL NADK expressed in Escherichia coli BL21(DE3) assessed as reduction in NADP production using NAD as substrate by glucose-6-phosphate dehydrogenase coupled enzyme based spectrophotometric method; set-up: species or system Staphylococcus aureus subsp. aureus COL
# T1 sequence (Q5HH78 whole entry): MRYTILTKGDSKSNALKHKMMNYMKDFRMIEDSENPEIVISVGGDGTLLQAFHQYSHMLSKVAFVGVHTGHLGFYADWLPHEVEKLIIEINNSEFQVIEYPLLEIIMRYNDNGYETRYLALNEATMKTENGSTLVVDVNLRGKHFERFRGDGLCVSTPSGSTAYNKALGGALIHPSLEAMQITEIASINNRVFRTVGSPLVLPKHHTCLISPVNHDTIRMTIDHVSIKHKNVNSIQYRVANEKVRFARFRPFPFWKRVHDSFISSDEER
# NAD kinase [4] = biological target: T2, NAD kinase (Homo sapiens, UniProt O95544); assay: Inhibition of human NADK expressed in Escherichia coli BL21(DE3) assessed as reduction in NADP production using NAD as substrate by glucose-6-phosphate dehydrogenase coupled enzyme based spectrophotometric method
# T2 sequence (O95544 whole entry): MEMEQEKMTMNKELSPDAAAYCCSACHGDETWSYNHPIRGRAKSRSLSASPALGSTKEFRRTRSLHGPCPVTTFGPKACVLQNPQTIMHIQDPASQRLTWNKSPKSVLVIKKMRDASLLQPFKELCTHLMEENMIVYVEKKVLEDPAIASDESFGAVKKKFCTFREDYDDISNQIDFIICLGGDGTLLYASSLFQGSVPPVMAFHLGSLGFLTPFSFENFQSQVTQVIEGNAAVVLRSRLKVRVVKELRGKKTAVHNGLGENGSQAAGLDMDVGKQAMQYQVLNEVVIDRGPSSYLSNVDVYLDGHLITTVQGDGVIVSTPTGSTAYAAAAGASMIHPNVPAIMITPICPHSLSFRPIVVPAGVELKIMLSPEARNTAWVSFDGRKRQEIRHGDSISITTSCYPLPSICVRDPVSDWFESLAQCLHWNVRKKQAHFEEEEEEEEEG
# [5] = biological target: T3, NAD kinase (Homo sapiens) (UniProt O95544); assay: (§1) Inhibition of human NADK expressed in Escherichia coli BL21(DE3) assessed as reduction in NADP production at 250 uM using NAD as substrate by glucose-6-phosphate dehydrogenase coupled enzyme based spectrophotometric method relative to control
# T3 sequence (whole entry): T2 sequence (O95544 whole entry)
# [6] = biological target: T3, NAD kinase (Homo sapiens); assay: Inhibition of human NADK expressed in Escherichia coli BL21(DE3) assessed as reduction in NADP production at 400 uM using NAD as substrate by glucose-6-phosphate dehydrogenase coupled enzyme based spectrophotometric method relative to control
# [7] = biological target: T3, NAD kinase (Homo sapiens); assay: Inhibition of human NADK expressed in Escherichia coli BL21(DE3) assessed as reduction in NADP production at 500 uM using NAD as substrate by glucose-6-phosphate dehydrogenase coupled enzyme based spectrophotometric method relative to control
# [8] = Ratio of Ki for human NADK harboring Listeria monocytogenes NADK1 segment 1 expressed in Escherichia coli BL21(DE3) to Ki for human NADK expressed in Escherichia coli BL21(DE3)
# Listeria monocytogenes = assay: as §1, with “Listeria monocytogenes C-terminal His6-tagged NADK1” for “human NADK”, “300” for “250”, “control relative to control” for “control”
SMILES,Ki (NAD kinase [4]),Ki [1],Activity [2],further results
Nc1ncnc2c1nc(SCCC(=O)NCCc1cccc(Br)c1)n2[C@@H]1O[C@H](CO)[C@@H](O)[C@H]1O,,50 µM,Non-Toxic,IC50 (NAD kinase [3]): > 400 µM
[N-]=[N+]=NC[C@H]1O[C@@H](n2c(SCC(=O)NCCc3cccc(Cl)c3)nc3c(N)ncnc32)[C@H](O)[C@@H]1O,,0.75 µM,Non-Toxic,
[N-]=[N+]=NC[C@H]1O[C@@H](n2c(SCC(=O)NCCc3c[nH]c4ccccc34)nc3c(N)ncnc32)[C@H](O)[C@@H]1O,140 µM,0.5 µM,Non-Toxic,
C#Cc1cccc(CCNC(=O)CSc2nc3c(N)ncnc3n2[C@@H]2O[C@H](CN=[N+]=[N-])[C@@H](O)[C@H]2O)c1,,6 µM,Non-Toxic,inhibition [5]: 20%
Cn1cc(CCNC(=O)CSc2nc3c(N)ncnc3n2[C@@H]2O[C@H](CN=[N+]=[N-])[C@@H](O)[C@H]2O)c2ccccc21,350 µM,0.4 µM,Non-Toxic,
Nc1ncnc2c1nc(SCC(=O)NCCc1ccccc1)n2[C@@H]1O[C@H](CO)[C@@H](O)[C@H]1O,,140 µM,Non-Toxic,IC50 (NAD kinase [3]): > 400 µM; inhibition [6]: 10%
[N-]=[N+]=NC[C@H]1O[C@@H](n2c(SCC(=O)NCc3cccc(Br)c3)nc3c(N)ncnc32)[C@H](O)[C@@H]1O,,25 µM,Non-Toxic,IC50 (NAD kinase [3]): > 400 µM
Nc1ncnc2c1nc(SCC(=O)NCCc1c[nH]c3ccccc13)n2[C@@H]1O[C@H](CO)[C@@H](O)[C@H]1O,,2 µM,Non-Toxic,inhibition [7]: 20%
[N-]=[N+]=NC[C@H]1O[C@@H](n2c(SCC(=O)NCCc3ccccc3)nc3c(N)ncnc32)[C@H](O)[C@@H]1O,350 µM,5 µM,Non-Toxic,Ratio Ki [8]: 3; IC50 (NAD kinase [3]): > 400 µM
Nc1ncnc2c1nc(SCC(=O)NCCc1ccc(C(F)(F)F)cc1)n2[C@@H]1O[C@H](CO)[C@@H](O)[C@H]1O,,10 µM,Non-Toxic,
CN(C)S(=O)(=O)NC[C@H]1O[C@@H](n2c(SCC(=O)NCCc3ccc(Cl)c(Cl)c3)nc3c(N)ncnc32)[C@H](O)[C@@H]1O,160 µM,3.5 µM,Non-Toxic,
[N-]=[N+]=NC[C@H]1O[C@@H](n2c(SCC(=O)NCCc3nc4ccccc4[nH]3)nc3c(N)ncnc32)[C@H](O)[C@@H]1O,525 µM,23 µM,Non-Toxic,
COc1ccc2[nH]cc(CCNC(=O)CSc3nc4c(N)ncnc4n3[C@@H]3O[C@H](CO)[C@@H](O)[C@H]3O)c2c1,,40 µM,Non-Toxic,
CCNC(=O)NC[C@H]1O[C@@H](n2c(SCC(=O)NCCc3ccc(Cl)c(Cl)c3)nc3c(N)ncnc32)[C@H](O)[C@@H]1O,,3 µM,Non-Toxic,inhibition [5]: 10%
Nc1ncnc2c1nc(SCC(=O)NCCc1ccc(Cl)cc1)n2[C@@H]1O[C@H](CO)[C@@H](O)[C@H]1O,,40 µM,Non-Toxic,inhibition [7]: 20%
[N-]=[N+]=NC[C@H]1O[C@@H](n2c(SCC(=O)NCCc3ccc(C(F)(F)F)cc3)nc3c(N)ncnc32)[C@H](O)[C@@H]1O,230 µM,7.5 µM,Non-Toxic,
[N-]=[N+]=NC[C@H]1O[C@@H](n2c(SCC(=O)NCCc3ccc(Br)cc3)nc3c(N)ncnc32)[C@H](O)[C@@H]1O,,0.5 µM,Non-Toxic,
C#CCNC(=O)CSc1nc2c(N)ncnc2n1[C@@H]1O[C@H](CN=[N+]=[N-])[C@@H](O)[C@H]1O,140 µM,30 µM,Non-Toxic,IC50 (NAD kinase [3]): > 400 µM
[N-]=[N+]=NC[C@H]1O[C@@H](n2c(SCC(=O)NCc3ccnc(Cl)c3)nc3c(N)ncnc32)[C@H](O)[C@@H]1O,220 µM,,Non-Toxic,inhibition (Listeria monocytogenes): 20%; IC50 (NAD kinase [3]): > 400 µM
[N-]=[N+]=NC[C@H]1O[C@@H](n2c(SCC(=O)NCCc3c[nH]c4ccc(Cl)cc34)nc3c(N)ncnc32)[C@H](O)[C@@H]1O,,0.3 µM,Non-Toxic,
COc1ccc2[nH]cc(CCNC(=O)CSc3nc4c(N)ncnc4n3[C@@H]3O[C@H](CN=[N+]=[N-])[C@@H](O)[C@H]3O)c2c1,160 µM,5 µM,Non-Toxic,

# Second part, led by results:
Ki (NAD kinase [4]),SMILES,Ki [1],Activity [2],further results
140 µM,[N-]=[N+]=NC[C@H]1O[C@@H](n2c(SCC(=O)NCCc3ccc(Cl)c(Cl)c3)nc3c(N)ncnc32)[C@H](O)[C@@H]1O,0.1 µM,Non-Toxic,
250 µM,Nc1ncnc2c1nc(SCC(=O)NCCc1ccc(Br)cc1)n2[C@@H]1O[C@H](CO)[C@@H](O)[C@H]1O,30 µM,Non-Toxic,
140 µM,[N-]=[N+]=NC[C@H]1O[C@@H](n2c(SCC(=O)NCCc3ccc4ccccc4c3)nc3c(N)ncnc32)[C@H](O)[C@@H]1O,5 µM,Non-Toxic,
150 µM,[N-]=[N+]=NC[C@H]1O[C@@H](n2c(SCC(=O)NCCCc3ccccc3)nc3c(N)ncnc32)[C@H](O)[C@@H]1O,55 µM,Non-Toxic,IC50 (NAD kinase [3]): > 400 µM
200 µM,Nc1ncnc2c1nc(SCC(=O)NCCc1cccc(Cl)c1)n2[C@@H]1O[C@H](CO)[C@@H](O)[C@H]1O,30 µM,Non-Toxic,
180 µM,C[C@H]1O[C@@H](n2c(SCC(=O)NCCc3ccc(Cl)c(Cl)c3)nc3c(N)ncnc32)[C@H](O)[C@@H]1O,1.5 µM,Non-Toxic,
130 µM,NC[C@H]1O[C@@H](n2c(SCC(=O)NCCc3ccc(Cl)c(Cl)c3)nc3c(N)ncnc32)[C@H](O)[C@@H]1O,2 µM,Non-Toxic,
335 µM,Nc1ncnc2c1nc(SCC(=O)NCCc1cccc(Br)c1)n2[C@@H]1O[C@H](CO)[C@@H](O)[C@H]1O,2 µM,Non-Toxic,IC50 (NAD kinase [3]): > 400 µM
210 µM,[N-]=[N+]=NC[C@H]1O[C@@H](n2c(SCC(=O)NCCc3ccc(Cl)cc3)nc3c(N)ncnc32)[C@H](O)[C@@H]1O,0.5 µM,Non-Toxic,
775 µM,Nc1ncnc2c1nc(SCC(=O)NCCc1c[nH]c3ccc(Cl)cc13)n2[C@@H]1O[C@H](CO)[C@@H](O)[C@H]1O,0.25 µM,Non-Toxic,
130 µM,NC[C@H]1O[C@@H](n2c(SCC(=O)NCCc3ccc(Br)cc3)nc3c(N)ncnc32)[C@H](O)[C@@H]1O,55 µM,Non-Toxic,
300 µM,[N-]=[N+]=NC[C@H]1O[C@@H](n2c(SCC(=O)NCCc3cccc(C(F)(F)F)c3)nc3c(N)ncnc32)[C@H](O)[C@@H]1O,6.5 µM,Non-Toxic,
425 µM,Nc1ncnc2c1nc(SCC(=O)NCCc1ccc(Cl)c(Cl)c1)n2[C@@H]1O[C@H](CO)[C@@H](O)[C@H]1O,22 µM,Non-Toxic,
